In patent US8609410B2 (priority 2005, dated 2013):

Legend:
Type in all cases: cell-based, human
A27L-specific CD8+ CTLs [1] = test: Induction of A27L-specific CD8+ CTLs by artificial antigen-presenting cells MDA-MB/CD80 co-pulsed with ZOMETA and A27L; settings: co-pulse 0.01 μM or 1 μM ZOMETA and 2 μg/ml A27L
Protocol: A human CD80 gene, which was a co-stimulatory molecule, was transfected by a lipofection method in a breast cancer-derived cell line: MDA-MB-231 (class I antigen HLA-A*0201) expressing MHC class I molecules, thus establishing a cell line MDA-MB/CD80 expressing human CD80 stably and constantly in MDA-MB-231 cells.
As a negative control, MDA-MB/CD80 cells that were cultured without adding ZOMETA™ or the antigenic peptides were used.
After about 12 hours of culture, part of the activated MDA-MB/CD80 cells that were co-pulsed with ZOMETA™ and the antigenic peptides were collected, placed in a 15 ml tube (BD Falcon) and centrifuged at 1500 rpm for 5 minutes. The resultant MDA-MB/CD80 cells in the form of pellets were suspended in 10 ml of an AIM-V medium supplemented with 10% FBS and centrifuged at 1500 rpm for 5 minutes, followed by washing. The washing operation was repeated twice. The MDA-MB/CD80 cells collected in this manner were used as stimulating cells. In other words, the activated MDA-MB/CD80 cells that were co-pulsed with bisphosphonate and the disease antigenic peptides, the MDA-MB/CD80 cells that were pulsed with either of them and the MDA-MB/CD80 cells that were not pulsed with any of them were used as stimulating cells. […]

BMLF1-specific CD8+ CTLs = test: Induction of BMLF1-specific CD8+ CTLs by dendritic cells co-pulsed with ZOMETA and BMLF1; settings: for The number of CTLs / The total number of cells / Ratio of CTLs (%): BMLF1 2 μg/ml; for Ratio of CTLs (%): immature dendritic cells, 7 days
Protocol: (§1) As a negative control, dendritic cells that were cultured without adding ZOMETA™ or the antigenic peptides were used.
After about 12 hours of the culture, part of the activated dendritic cells that were co-pulsed with ZOMETA™ and the antigenic peptides were collected, placed in a 15 ml tube (BD Falcon) and centrifuged at 1500 rpm for 5 minutes. The resultant dendritic cells in the form of pellets were suspended in 10 ml of an AIM-V medium supplemented with 10% FBS and centrifuged at 1500 rpm for 5 minutes, followed by washing. The washing operation was repeated twice. The dendritic cells collected in this manner were used as stimulating cells. In other words, the activated dendritic cells that were co-pulsed with bisphosphonate and the disease antigenic peptides, the dendritic cells that were pulsed with either of them and the dendritic cells that were not pulsed with any of them were used as stimulating cells. Cells prepared by suspending those (a CD14-negative cell population, which was mainly a T cell population) remaining after isolation of the CD14-positive cells for preparing the dendritic cells in an AIM-V medium supplemented with 10% FBS and 10% dimethyl sulfoxide (DMSO), and freeze-preserving them were thawed, washed and used as responding cells. 1×10^5 each of the obtained stimulating cells (dendritic cells) were cultured with 1×10^6 responding cells such that the total amount was 1 ml in a 48-well plate (CORNING) (responding cells:dendritic cells=10:1). The co-culture was carried out at about 37° C. under a condition of 5% CO2 for 7 days. […] In the case where the cells were proliferated rapidly, 1 ml of an AIM-V medium supplemented with 40 U/ml of IL-2 and 10% FBS was added on day 4 to day 6.
After dyeing in a shielded state at room temperature for 15 minutes, an anti-CD8 antibody that was labeled with FITC (BD Pharmingen) was added, followed by dyeing in a shielded state at 4° C. for 15 minutes. As a control, an isotype of each of the antibodies was used. The cells were measured using EPICS XL.MCL, and the results of measurement were analyzed using EPICS 32.

A27L-specific CD8+ CTLs [2] = test: Induction of A27L-specific CD8+ CTLs by washed pulsed immature dendritic cells co-cultured with lymphocytes (tetramer flow cytometry)
Protocol: as §1
After about 12 hours of culture, part of the activated dendritic cells that were co-pulsed with ZOMETA™ and the antigenic peptides were collected, placed in a 15 ml tube (BD Falcon) and centrifuged at 1500 rpm for 5 minutes. The resultant dendritic cells in the form of pellets were suspended in 10 ml of an AIM-V medium supplemented with 10% FBS and centrifuged at 1500 rpm for 5 minutes, followed by washing. The washing operation was repeated twice. The dendritic cells collected in this manner were used as stimulating cells. In other words, the activated dendritic cells that were co-pulsed with bisphosphonate and the disease antigenic peptides, the dendritic cells that were pulsed with either of them and the dendritic cells that were not pulsed with any of them were used as stimulating cells. […]
After dyeing in a shielded state at room temperature for 15 minutes, an anti-CD8 antibody that was labeled with FITC (BD Pharmingen) was added, followed by dyeing in a shielded state at 4° C. for 15 minutes. […] The cells were measured using EPICS XL.MCL, and the results of measurement were analyzed using EPICS 32.

IFN-γ producing cells = test: IFN-γ ELISPot of co-cultured immunocytes
Protocol: 70% ethanol was added to each well of MultiScreen plate (MILLIPORE) and removed within 2 minutes. Each well of the above-noted plate was washed five times in 200 μl of PBS. […] This plate was left overnight at 4° C. This plate was washed four times in 200 μl/well of PBS. Then, 200 μl of an AIM-V medium supplemented with 10% FBS was added in each well, followed by blocking at room temperature for at least 30 minutes. The blocking medium was removed, and the plate was washed four times in 200 μl/well of PBS. A co-cultured cell population in each condition obtained by a method similar to the above-described co-culture was collected by centrifugation and washed twice in AIM-V.
The number of cells indicates the number per well of an assay plate. […] The culture volume was adjusted to be 100 μl per well. For each culture condition, 300 μl of culture, which corresponds to 3 wells, was performed. 100 μl per well of the cells pre-cultured under each condition was added into 3 wells in the plate that had been washed in PBS after blocking, and cultured overnight at 37° C. under a condition of 5% CO2. The cultured cells were removed from the wells and washed five times in 200 μl/well of PBS. […] The plate was allowed to stand still at room temperature for 2 hours. This plate was washed five times in 200 μl/well of PBS. Streptavidin to which alkaline phosphatase was bound (MABTECH ELISPot™ for Human Interferon-γ kit) was diluted with PBS supplemented with 0.5% FBS so that 1:1000, and 100 μl thereof per well was added. The plate was left at room temperature for 1 hour. This plate was washed five times in 200 μl/well of PBS. Then, 100 μl of BCIP/NBTplus substrate solution (Wako) was added per well, which was left in a dark place until spots became visible. When the spots became visible to the naked eye, the plate was washed sufficiently in distilled water. After checking that a membrane in the plate is dry, the number of spots were measured using ELISPot™ reader (AID Autoimmun Diagnostika GmbH), and the data were analyzed with AID software version 3.1 (AID).

[3] = system: A27L antigen-specific CD8+ CTLs; test: Induction of A27L-specific CD8+ CTLs by dendritic cells co-pulsed with ZOMETA and apoptotic melanoma cells
Protocol: From a healthy donor, 200 ml of peripheral blood was collected. Mononuclear cells were obtained from this peripheral blood of the healthy donor. At this time, a mononuclear cell layer was collected using a density gradient solution for blood cell separation. After several times of washing in order to remove platelets, etc. from the collected cells, CD14-positive cells were isolated as monocytes with MACS. From the obtained dendritic cell precursors, differentiation induction of dendritic cells was carried out. The medium was prepared by adding 500 U/ml of GM-CSF (IMMUNEX) and 500 U/ml of IL-4 (Osteogenetics GmbH) to AIM-V supplemented with 10% FBS. On day 5 to day 7 after starting culture, immature dendritic cells were obtained.
A cancer cell line derived from MART-1-positive melanoma was collected, placed in a 15 ml tube (BD Falcon) and centrifuged at 1500 rpm for 5 minutes. […]
Using the number of all lymphocytes that were proliferated 7, 11 and 14 days after the start of co-culture, a labeled antibody and an antigen-specific tetramer, the ratio of the antigen-specific CD8+ CTLs in all of the lymphocytes was measured with a flow cytometer. […] The cells were measured using EPICS XL.MCL, and the results of measurement were analyzed using EPICS 32.

How did the “ratio of antigen-specific CD8+ CTLs versus MDA-MB/CD80 cells pulsed with peptides alone” value (A27L-specific CD8+ CTLs [1]) turn out when `O=P(O)(O)C(O)(Cn1ccnc1)P(=O)(O)O` [ZOMETA ™, zoledronate sodium hydrate] was run?
Its value is “about 6 times”.

And the “The number of CTLs” value (BMLF1-specific CD8+ CTLs; ZOMETA 0.01 μM)?
Its value is 10845.

And the “The total number of cells” value (BMLF1-specific CD8+ CTLs; ZOMETA 0.01 μM)?
Its value is 2.01 × 10^6.

And the “Ratio of CTLs (%)” value (BMLF1-specific CD8+ CTLs; ZOMETA 0.01 μM)?
The value was 0.54%.

What about the “The number of CTLs” value (BMLF1-specific CD8+ CTLs; ZOMETA 0.1 μM) of the same compound?
Its value is 12130.

What about the “The total number of cells” value (BMLF1-specific CD8+ CTLs; ZOMETA 0.1 μM) of the same compound?
The value was 2.17 × 10^6.

What about the “Ratio of CTLs (%)” value (BMLF1-specific CD8+ CTLs; ZOMETA 0.1 μM) of the same compound?
Its value is 0.56%.

What about the “The number of CTLs” value (BMLF1-specific CD8+ CTLs; ZOMETA 1 μM) of the same compound?
Its value is 11389.

What about the “The total number of cells” value (BMLF1-specific CD8+ CTLs; ZOMETA 1 μM) of the same compound?
Its value is 1.96 × 10^6.

What about the “Ratio of CTLs (%)” value (BMLF1-specific CD8+ CTLs; ZOMETA 1 μM) of the same compound?
The value was 0.58%.

And the “The number of CTLs” value (BMLF1-specific CD8+ CTLs; ZOMETA 5 μM)?
Its value is 21266.

What about the “The total number of cells” value (BMLF1-specific CD8+ CTLs; ZOMETA 5 μM) of the same compound?
The value was 2.84 × 10^6.

And the “Ratio of CTLs (%)” value (BMLF1-specific CD8+ CTLs; ZOMETA 5 μM)?
The value was 0.75%.

And the “The number of CTLs” value (BMLF1-specific CD8+ CTLs; ZOMETA 20 μM)?
The value was 21133.

What about the “The total number of cells” value (BMLF1-specific CD8+ CTLs; ZOMETA 20 μM) of the same compound?
The value was 2.94 × 10^6.

What about the “Ratio of CTLs (%)” value (BMLF1-specific CD8+ CTLs; ZOMETA 20 μM) of the same compound?
The value was 0.72%.

And the “ratio of antigen-specific CD8+ CTLs versus dendritic cells pulsed with peptides alone” value (BMLF1-specific CD8+ CTLs; co-pulse ZOMETA 0 to 20 μM and BMLF1)?
The value was “about 3.2 times”.

What about the “ratio of antigen-specific CD8+ CTLs versus dendritic cells pulsed with peptides alone” value (A27L-specific CD8+ CTLs [2]; co-pulse 0.01 μM ZOMETA and 2 μg/ml A27L) of the same compound?
Its value is “about 4 times”.

And the “Ratio (%) of disease antigen-specific CD8+ CTLs” value (A27L-specific CD8+ CTLs [2]; immature dendritic cells, ZOMETA 0.01 μM and/or A27L 2 μg/ml, 7 days co-culture)?
Its value is 0.00%.

And the “The number of IFN-γ producing cells in all of 2500 lymphocytes” value (from here on “The number of IFN-γ producing cells”) (IFN-γ producing cells; Donor A, Lymphocytes + dendritic cells pulsed with peptides (re-stimulation))?
The value was 100.

And the “The number of IFN-γ producing cells” value (IFN-γ producing cells; Donor A, Lymphocytes alone (no re-stimulation))?
Its value is 4.

What about the “The number of IFN-γ producing cells” value (IFN-γ producing cells; Donor B, Lymphocytes + dendritic cells pulsed with peptides (re-stimulation)) of the same compound?
The value was 50.

And the “The number of IFN-γ producing cells” value (IFN-γ producing cells; Donor B, Lymphocytes alone (no re-stimulation))?
Its value is 0.

What about the “increase of tetramer-positive cells by the addition of ZOMETA” value ([3]; day 11, versus apoptotic cells alone) of the same compound?
The value was “about 15 times”.

What about the “Ratio of CD8+ CTLs (%), A27L-specific” value ([3]; day 11 of culture, ZOMETA 0.01 μM, apoptotic MART-1-positive melanoma cells) of the same compound?
Its value is 0.14%.
